Assay results taken from patent US20140323354A1, “Chemically Modified Ligase Cofactors, Donors and Acceptors” (priority 2010, published 2014).

Biological target: T1, T4 DNA ligase (Enterobacteria phage T4, UniProt P00970)
T1 construct: purchased New England Biolabs
Test: Ligation yield with modified ATP cofactors on matched and mismatched templates, PAGE analysis
Assay type: biochemical, bacteriophage T4
Conditions: for discrimination of modified cofactor between matched and mismatched templates: matched T-A versus mismatched C-A, G-A, A-A, panel of ten modified cofactors at 1 mM
Description: Each 20 μL reaction was performed in buffer containing 50 mM Tris-HCl (pH 7.5), 10 mM MgCl2, 10 mM dithiothreitol, 25 μg/ml bovine serum albumin. 1 mM ATP was added to the buffer separately. The donor (LP3′T w/PBS), acceptor (Com3F w/PBS), and template (Alg) were at 0.1 μM equimolar amounts. The acceptor, donor, and template were denatured at 95° C. for 3 minutes and annealed at 4° C. for 3 minutes. Ligation was initiated by adding 400 units of T4 ligase (New England Biolabs) to each reaction. Ligation proceeded at 16° C. for 20 minutes. Ligation was terminated by heating the reaction to 65° C. for 10 minutes and adding an equal volume of 2×TBE-Urea buffer (Invitrogen). Samples were run on 6% TBE-Urea Novex gels (Invitrogen). The gels were stained with SYBR Gold nucleic acid stain (Invitrogen) according to manufacturer's protocol.
ATP analogs were compared to the corresponding natural ATP cofactor for their ability to join matched and mismatched templates (FIG. 4). ATP analogs were evaluated for relative ligation yield in the presence of matched template (LP3′T Acceptor w/PBS and Alg template; T-A matched base pair at the 3′-end of the acceptor strand) to the relative yield when a mismatched template was used (LP3′C Acceptor w/PBS and Alg template; C-A mismatched base pair on 3′-end of the acceptor strand). Reactions were performed as described for Example 1, with a cofactor of interest included in the reaction at 1 mM concentration. Natural ATP substrate was compared to the following modified cofactors: 7-deaza-ATP (7-deaza-adenosine-5′-triphosphate), N1-methyl-ATP (N1-methyl-adenosine-5′-triphosphate), 2-amino-ATP (2-amino-adenosine-5′-triphosphate), 2′-amino-2′-deoxy-ATP (2′-amino-2′-deoxyadenosine-5′-triphosphate), 3′-amino-2′,3′-dideoxy-ATP (3′-amino-2′,3′-dideoxy-adenosine-5′-triphosphate) (FIG. 4). All modified cofactors supported ligation with similar efficiency to natural ATP when a matched template was employed.
One method of determining the ligation yield of a ligation component of interest (e.g., modified ligase cofactors, modified donors or modified acceptors) is by assigning a specificity number. Specificity numbers can be determined for example, by dividing the ligation yield of a matched case by the ligation yield of a mismatched case where a single base pair differs relative to the matched case. […] The yields are then normalized to the template readings in the same reaction, with subsequent normalization to the ligation yield for a reaction including the natural (ATP) cofactor, where ATP has a normalized yield of 1.0. For example, in the case of 2′-deoxy-ATP (2′-deoxy-adenosine-5′-triphosphate; FIG. 4), the ligation yield in the matched case (LP3′T Acceptor w/PBS and Alg template; T-A matched base pair on 3′ end of the acceptor strand) was 1.34. In the mismatched case (LP3′C Acceptor w/PBS and Alg template; C-A mismatched base pair on 3′ end of the acceptor strand) the ligation yield was 0.18. Accordingly, the specificity number assigned to 2′-deoxy-ATP in a C-A mismatch case was 1.34÷0.18 or 7.44. A value greater than one is indicative of improved ligation specificity. A value less than one is indicative of reduced ligation specificity.
ATP analogs were compared to the natural ATP cofactor for their ability to join matched and mismatched templates for relative ligation yield in the presence of matched template (LP3′T Acceptor w/PBS and Alg template; T-A matched base pair on 3′-end of the acceptor strand) relative to the yield of templates which contained a mismatched base pair on 3′-end of the acceptor: 1) LP3′C Acceptor w/PBS and Alg template; C-A mismatch, 2) LP3′G Acceptor w/PBS and Alg template; G-A mismatch, and 3) LP3′A Acceptor w/PBS and Alg template; A-A mismatch (FIG. 5). Reactions were performed as described for Example 1, with a cofactor of interest included in the reaction at 1 mM concentration. […]

T1 sequence (P00970 whole entry): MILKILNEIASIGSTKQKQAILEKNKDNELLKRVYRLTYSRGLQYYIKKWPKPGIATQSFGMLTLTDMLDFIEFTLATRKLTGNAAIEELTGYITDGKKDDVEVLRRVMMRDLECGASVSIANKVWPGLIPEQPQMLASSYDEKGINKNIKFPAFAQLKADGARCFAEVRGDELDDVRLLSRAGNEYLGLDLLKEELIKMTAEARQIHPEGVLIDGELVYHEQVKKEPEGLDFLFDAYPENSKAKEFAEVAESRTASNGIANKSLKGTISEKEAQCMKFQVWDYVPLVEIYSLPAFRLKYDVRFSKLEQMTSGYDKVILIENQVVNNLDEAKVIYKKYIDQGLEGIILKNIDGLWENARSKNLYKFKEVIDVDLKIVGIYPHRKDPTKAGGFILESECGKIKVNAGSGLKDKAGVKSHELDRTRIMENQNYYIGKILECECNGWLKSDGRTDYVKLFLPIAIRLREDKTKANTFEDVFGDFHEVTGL

Nc1ncnc2c1ncn2[C@@H]1O[C@H](COP(O)(=S)OP(=O)(O)OP(=O)(O)O)[C@@H](O)[C@H]1O (stereo partly drawn) [5′-alpha-thio-adenosine-5′-triphosphate]
discrimination of modified cofactor between matched and mismatched templates: lead modifications of interest

Nc1ncnc2c1ncn2[C@H]1C[C@H](N)[C@@H](COP(=O)(O)OP(=O)(O)OP(=O)(O)O)O1 [3′-amino-2′,3′-dideoxy-adenosine-5′-triphosphate]
discrimination of modified cofactor between matched and mismatched templates: lead modifications of interest

Nc1ncnc2c1ncn2[C@H]1C[C@H](O)[C@@H](COP(=O)(O)OP(=O)(O)OP(=O)(O)O)O1 [2′-deoxy-ATP, 2′-deoxy-adenosine-5′-triphosphate]
ligation yield in the mismatched case (LP3′C Acceptor w/PBS and Alg template, C-A mismatched base pair on 3′ end of acceptor, cofactor 1 mM, normalized to ATP = 1.0): 0.18 | ligation yield in the matched case (LP3′T Acceptor w/PBS and Alg template, T-A matched base pair on 3′ end of acceptor, cofactor 1 mM, normalized to ATP = 1.0): 1.34 | specificity number (matched (T-A) yield divided by mismatched (C-A) yield, greater than one = improved ligation specificity): 7.44 | discrimination of modified cofactor between matched and mismatched templates: lead modifications of interest
